According to a melting point compilation (Tetko et al.; mined from patent text by program, amines drawn as free bases though some values may be those of a salt):

SMILES	melting point [°C]
Cc1ccnc2c1C(=O)CC(c1sc(Cl)cc1Cl)C2 (stereo not drawn)	109 to 111
C/C(=N\OCCOc1ccc(C(=O)O)cc1Cl)c1ccc(C(C)(C)C)cc1	167 to 169
COc1cc(Nc2nc3cccc(-c4ccc(S(C)(=O)=O)cc4)c3o2)cc(OC)c1OC	205 to 207
CS(=O)(=O)N1CCC(CCC(=O)c2ccc3c(c2)CCN(Cc2ccccc2)CC3)CC1	134 to 137
O=C(NCCCn1cnc2cnc3ccccc3c21)c1ccccc1	188 to 190
CN(C)c1ccc(C2=NN(S(=O)(=O)c3ccc(I)cc3)CCC2)cc1	203 to 205
CNC(=O)c1ccccc1Nc1nc(Nc2ccc3c(c2)CCOCC3)ncc1Cl	185
CCC(C(O)c1ccc(Cl)cc1)n1ncn(-c2ccc(N3CCN(C(=O)NC)CC3)cc2)c1=O (stereo not drawn)	221
Nc1nc2ccc(S(=O)(=O)n3c(CCC(=O)O)cc4cc(Cl)ccc43)cc2s1	250 to 255
CCOc1ccc(C2(O)CCN(CC(O)c3ccc(O)c(C)c3)CC2)cn1 (stereo not drawn)	189
OC1(c2ccccc2)CNN=C1c1ccc(Cl)cc1 (stereo not drawn)	195 to 196
NCCCCCCNc1nsc2nccn12	81 to 82
CN(c1cccc2cc(-c3nc(CCC(=O)O)cs3)[nH]c12)S(=O)(=O)c1cccs1	200 to 201
CC(=O)N1CCC(CNc2nc3ccccc3s2)CC1	138
COc1ccc(C=O)cc1OCc1nc(-c2ccco2)oc1C	125 to 126
CCc1ccc2c3c(ccc2n1)OCC(CN1CC=C(c2c[nH]c4ccccc24)CC1)O3 (stereo not drawn)	190
CNc1nc(C)c(-c2nc3ccccc3c(=O)n2-c2cccc(C)c2)s1	> 275
CC(=O)OC1CC2CCC3C(CCC4(C)C3CC(N3CCN(C)CC3)C4OC(C)=O)C2(C)CC1N1CCCCC1 (stereo not drawn)	95 to 98
CNC(=O)c1ccc(C)c(-n2c(C)cc(OCc3ccccc3CNC(=O)Nc3cc(C(C)(C)C)nn3-c3ccc(Cl)c(O)c3)c(Cl)c2=O)c1	201 to 203
Cn1ccc2cc(Nc3cnccc3N)ccc21	167 to 169
Cc1cn(C(=O)OC(C)(C)C)c2ccc(Br)cc12	92
CN(C)CCOC(=O)c1cccc2cc(-c3ccccc3)oc12	56.5 to 58
O=[N+]([O-])c1ccc(Cc2cccnc2)cc1	87 to 88
C=CCn1cccc1C(N)=S	80.5 to 83
COC(=O)[C@H](/C=C/[C@H](Cc1ccccc1)NC(=O)OC(C)(C)C)Cc1ccccc1	84 to 85

SMILES	melting point [°C]
CS(=O)(=O)c1ccc(-c2cnn(-c3ccccc3F)c(=O)c2-c2ccc(F)cc2)cc1	96 to 103
CC(C)(C)c1cc(Nc2ccccc2C=O)cc(C(C)(C)C)c1O	105 to 107
COc1ccc(C(O)CCc2ccccc2O)cc1 (stereo not drawn)	114 to 116
c1ccc(-c2nsc3nc4ccccc4n23)nc1	173 to 174
COc1ccc2nc3cc(N4CCN(C)CC4)c(=O)cc-3sc2c1	208 to 209
CNC(=O)N(C)C1=NN(C(=O)C(C)(C)C)C(C)S1 (stereo not drawn)	168 to 169
CCCC(=O)c1cnc2nc(C)c(OCC)cc2c1O	240 to 241
CCC(C)c1ccc(N(Cc2ccccc2)C(=N)N)cc1 (stereo not drawn)	65 to 67
CCOC(=O)C(=CNc1cnnn1C)C(=O)c1cc(F)c(Cl)nc1Cl	187 to 189
CC(N)=CC(=O)c1ccc(Cl)cc1	126 to 130
C=CCOCc1nc(C(C)(C)C)nn1-c1c(Cl)cc(Cl)cc1Cl	34 to 37
CCCc1c(C(=O)C(C)C)c2ccc(C(=O)O)cc2n1Cc1ccc(F)cc1Cl	243 to 244
O=c1cc(-c2ccc(OCCOCCOCCOc3ccc(-c4cc(=O)c5c(O)cc(O)cc5o4)cc3)cc2)oc2cc(O)cc(O)c12	143 to 145
O=C(O)COc1ccc2c(=O)c3ccccc3oc2c1Cl	280 to 281
C=CC(=O)OCCOc1ccc(Cl)c2c1Sc1ccccc1C2	90 to 91
CCCN1CC(c2cccc(O)c2)CC1C (stereo not drawn)	123 to 124
COc1ccc(N2CCN(Cc3coc4c(OC)cccc34)CC2)cc1	126 to 127
c1ccc(-c2nc3ccc(NCCCN4CCC(OC(c5ccccc5)c5ccccc5)CC4)nn3n2)cc1	170 to 172
COc1cc(C(C)(C)CNC(=O)c2ccccc2)cc2c1OC(C)(C)C2	109 to 110
O=C1N(Cc2ccncn2)c2ccccc2C12COc1cc3c(cc12)CCO3 (stereo not drawn)	158 to 160
Cc1noc(-c2cn(-c3cccc(-c4ccccc4OC(F)(F)F)c3)cn2)n1	142 to 144
O=C1NC(=O)C(c2ccc(Cl)o2)O1 (stereo not drawn)	112 to 114
CCOC(=O)c1ccc(NC2(C(N)=O)CCCCC2)cc1	155 to 157
O=C(O)C(Cl)=C(Cl)C(=O)O	107 to 110
CCOC(=O)c1ncc2[nH]c3c(Br)cc(Br)cc3c2c1COC	98 to 99

Now from value to molecule:

melting point [°C]	SMILES
262 to 263	Cc1ccc(-n2c(-c3c4ccccc4cc4ccccc34)ccc2-c2c3ccccc3cc3ccccc23)cc1
118 to 125	N#Cc1cnc2cc(-c3cc(CN4CCOCC4)c(CN4CCOCC4)s3)ccc2c1Nc1ccc(Cl)cc1Cl
197 to 199	CCOC(=O)C1=C(C)NC(C)=C(C(=O)OC)C1c1cccc(NC(C)=O)c1 (stereo not drawn)
169 to 171	COc1ccc(C)cc1NC(=O)Nc1ccc(N2CCN(C(=O)OC(C)(C)C)CC2)cc1C
123	COC(=O)c1ccc(Cc2cc3cc(C(F)(F)F)ccc3n2S(=O)(=O)c2ccc(C(C)C)cc2)cc1
99 to 100	CCOC(=O)C1(C(N)=O)OCCO1
110 to 112	O=[N+]([O-])c1sc(-c2cccnc2)nc1Cl
68 to 70	CCN(CC)Cc1nc(Cn2cnc3c2c(=O)n(C)c(=O)n3C)no1
291 to 296	CNc1ncc2c(-c3cccc(Cl)c3)cc(-c3ccc(C(=O)O)cc3)c(O)c2n1
140 to 141	CCC(=O)S(=O)(=O)c1ccc(C=C(C)c2ccc3c(c2)C(C)(C)CCC3(C)C)cc1
154 to 157	CC(=O)Nc1ccc(F)cc1S(=O)(=O)CC#N
170 to 172	COc1cccc([C@H]2O[C@H](CC(N)=O)C(=O)N(CC(C)(C)C)c3ccc(Cl)cc32)c1OC
160 to 162	COc1ccc(O)c(C2Sc3ccccc3N(C)C2=O)c1 (single isomer, unassigned; (-))
218 to 220	CC(C)(CO)Nc1ccc2c(c1)C(=O)c1ccccc1C2=O
177 to 179	CCOC(=O)Nc1c(C#N)c(C(F)(F)F)nn1-c1c(Cl)cc(C(F)(F)F)cc1Cl
222 to 224	CCn1c(=O)ccc2cnc(Nc3ccc(O)cc3)nc21
195 to 196	O=[N+]([O-])c1ccccc1/C=C/c1ccccc1[N+](=O)[O-]
198 to 199	COc1ccc(C(C)(C)C)c(O)c1C(=O)Nc1ccc(S(=O)(=O)C(F)(F)F)cc1Cl
268 to 270	NC(=O)c1c(Cl)c(Cl)c(Cl)c(Cl)c1Cl
189	N#Cc1ccc(C(=O)c2ccc(OC3OCC(O)C(O)C3O)cc2)cc1 (stereo not drawn)
162 to 164	CCOC(=O)COc1cccc(N)c1
258 to 260	O=C(O)c1cc(=O)c2cc(O)c(=O)ccc2[nH]1
90 to 97	COCCOCOc1c(C(C)(C)C)nc(C=NO)nc1C(C)(C)C
95 to 97	CCOC(=O)C(C#N)(Cc1cc(OC)c(OC)c(OC)c1)C(OCC)OCC (stereo not drawn)

melting point [°C]	SMILES
120 to 122	CCCCN(Cc1ccc(-c2ccccc2-c2nnnn2C(c2ccccc2)(c2ccccc2)c2ccccc2)cc1)c1nc(C)ccc1C(=O)OCC
116 to 117	C=C(C1=C(CCC(=O)O)C(=O)CC1=O)c1ccccc1
101 to 102	CN(C)Cc1cccc(NCCCNc2nc(N)nn2C)c1
228	CCN(CC)c1ccc(C=NNC(=O)c2ccc(O)cc2)cc1
132	CCCc1c(OCCCOc2ccccc2)ccc2c1OC(CCC(=O)O)(CCC(=O)O)CC2O (stereo not drawn)
183 to 184	O=C1OC(=O)c2c(Br)c(Sc3ccccc3)c(Sc3ccccc3)c(Br)c21
177 to 178	CCN1CCN(NC(=O)c2cc(Cl)c(N)cc2OC)CC1
78 to 87	COC(=O)c1ccc(CNC(=O)C2Cc3ccccc3N2S(=O)(=O)c2ccc(-c3cccc(C(F)(F)F)c3)cc2)c(Cl)c1 (stereo not drawn)
55 to 57	O=P(O)(O)C1(P(=O)(O)O)Cc2ccccc2C1
171	COc1ccc(C(=O)N(C(=O)c2ccc(OC)cc2)c2nc3ccc(N(C)C)cc3c(NCc3cccs3)c2C#N)cc1
221 to 222	CSc1cc2n(c(=O)n1)C(C)N=C2 (stereo not drawn)
115 to 117	COC(=O)COc1ccc(C2C(=O)Oc3c2cc(C(C)(C)C)cc3C(C)(C)C)cc1 (stereo not drawn)
284	Nc1ccc(-c2noc(-c3cnn4c(C(F)(F)F)cc(-c5ccc(C(F)(F)F)c(OCC(F)(F)F)c5)nc34)n2)cn1
196 to 198	CNc1nc(Cl)cc(NS(=O)(=O)c2ccc(Cl)cc2)n1
110 to 112	COC(=O)c1ccc(NC(=O)C(N)c2ccc3c(c2)C(C)(C)CCC3(C)C)s1 (stereo not drawn)
151 to 152	CC1(C)CC(=O)CC(C)(C)N1CCCCCCN1C(C)(C)CC(=O)CC1(C)C
134 to 136	CCOC(=O)C1=C(C)Nc2ccnc(OC(C)C)c2C1c1cccc2nonc12 (stereo not drawn)
140 to 142	C1=C(COc2ccccc2)CCN(Cc2c[nH]c3ccccc23)C1
124 to 125	Cn1ncc2c1-c1c(Oc3cccnc3)sc(C(=O)O)c1CC2
223	CCCCc1nc2ccn(Cc3ccc(N)cc3)c(=O)c2n1Cc1ccc(-c2ccccc2C#N)cc1
163 to 165	CCC1(CC(=O)O)OCCc2c1[nH]c1ccc(OCc3ccccc3)cc21 (stereo not drawn)
110 to 111	Nc1ccc2c(c1)CNCCS2
114 to 116	O=C(NC[C@H]1CC[C@H](C(=O)O)CC1)OCc1ccccc1
227 to 229	O=C(O)C1=Cc2cc(-c3ccc4c(c3)OCO4)ccc2SCC1
